Assay results as given in patent US7956053B2, “Inhibitors of tyrosine kinases” (Novartis AG, priority 2002, dated 2011).

What was measured:
KDR = KDR (Homo sapiens, UniProt P35968); assay: Enzymatic KDR in vitro inhibition; assay type: biochemical
Procedure: Test for activity against VEGF-receptor tyrosine kinase. The test is conducted using Flt-1 VEGF-receptor tyrosine kinase. The detailed procedure is as follows: 30 μL kinase solution (10 ng of the kinase domain of Flt-1, Shibuya et al., Oncogene 5, 519-24 [1990]) in 20 mM Tris.HCl pH 7.5, 3 mM manganese dichloride (MnCl2), 3 mM magnesium chloride (MgCl2), 10 μM sodium vanadate, 0.25 mg/mL polyethylenglycol (PEG) 20000, 1 mM dithiothreitol and 3 μg/μL poly(Glu,Tyr) 4:1 (Sigma, Buchs, Switzerland), 8 μM [^33P]-ATP (0.2 μCi), 1% DMSO, and 0 to 100 μM of the compound to be tested are incubated together for 10 minutes at room temperature. The reaction is then terminated by the addition of 10 μL 0.25 M ethylenediaminetetraacetate (EDTA) pH 7. Using a multichannel dispenser (LAB SYSTEMS, USA), an aliquot of 20 μL is applied to a PVDF (=polyvinyl difluoride) Immobilon P membrane (Millipore, Bedford, USA), through a Gibco-BRL microtiter filter manifold and connected to a vacuum. Following complete elimination of the liquid, the membrane is washed 4 times successively in a bath containing 0.5% phosphoric acid (H3PO4) and once with ethanol, incubated for 10 minutes each time while shaking, then mounted in a Hewlett Packard TopCount Manifold and the radioactivity measured after the addition of 10 μL Microscint® (β-scintillation counter liquid). IC50-values are determined by linear regression analysis of the percentages for the inhibition of each compound in at least four concentrations (as a rule 0.01, 0.1, 1.0 and 10 μmol).
(§1) Enzymatic (c-Abl, KDR, Flt3) in vitro inhibition data are presented as % inhibition at 10 μM. The measurements are made as described above in the general description.

c-Abl = biological target: T1, c-Abl (Homo sapiens, UniProt P00519); assay: Test for activity against c-Abl protein tyrosine kinase (filter binding assay); assay type: biochemical
T1 construct: The His-tagged kinase domain of c-Abl is cloned and expressed in the baculovirus/Sf9 system; His; made in house; host or cells: baculovirus/Sf9
T1 sequence (P00519 242-493 limits assumed): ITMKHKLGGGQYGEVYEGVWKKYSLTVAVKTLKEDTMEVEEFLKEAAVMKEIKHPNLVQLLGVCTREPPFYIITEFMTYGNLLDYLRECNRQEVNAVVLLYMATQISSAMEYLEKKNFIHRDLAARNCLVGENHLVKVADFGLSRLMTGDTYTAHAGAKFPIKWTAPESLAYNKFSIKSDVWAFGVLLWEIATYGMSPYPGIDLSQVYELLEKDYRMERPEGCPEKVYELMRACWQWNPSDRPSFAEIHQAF
Procedure: Test for activity against c-Abl protein tyrosine kinase. The test is conducted as a filter binding assay as follows: The His-tagged kinase domain of c-Abl is cloned and expressed in the baculovirus/Sf9 system as described by Bhat et al., J Biol. Chem. 272, 16170-5 (1997). A protein of 37 kD (c-Abl kinase) is purified by a two-step procedure over a Cobalt metal chelate column followed by an anion exchange column with a yield of 1-2 mg/L of Sf9 cells. The purity of the c-Abl kinase is >90% as judged by SDS-PAGE after Coomassie blue staining. The assay contains: c-Abl kinase (50 ng), 20 mM Tris.HCl, pH 7.5, 10 mM MgCl2, 10 μM Na3VO4, 1 mM DTT and 0.06 μCi/assay [γ^33 P]-ATP (5 μM ATP) using 30 μg/mL poly-Ala,Glu,Lys,Tyr-6:2:5:1 (Poly-AEKY, Sigma P1152) in the presence of 1% DMSO, total volume of 30 μL. Reactions are terminated by adding 10 μL of 250 mM EDTA, and 30 μL of the reaction mixture is transferred onto Immobilon-PVDF membrane (Millipore, Bedford, Mass., USA) previously soaked for 5 min with methanol, rinsed with water, then soaked for 5 min with 0.5% H3PO4 and mounted on vacuum manifold with disconnected vacuum source. After spotting all samples, vacuum is connected and each well rinsed with 200 μL 0.5% H3PO4. Membranes are removed and washed on a shaker with 0.5% H3PO4 (4 times) and once with ethanol. Membranes are counted after drying at ambient temperature, mounting in Packard TopCount 96-well frame, and addition of 10 μL/well of Microscint™ (Packard).
as §1

KDR, sequence (P35968 20-1356): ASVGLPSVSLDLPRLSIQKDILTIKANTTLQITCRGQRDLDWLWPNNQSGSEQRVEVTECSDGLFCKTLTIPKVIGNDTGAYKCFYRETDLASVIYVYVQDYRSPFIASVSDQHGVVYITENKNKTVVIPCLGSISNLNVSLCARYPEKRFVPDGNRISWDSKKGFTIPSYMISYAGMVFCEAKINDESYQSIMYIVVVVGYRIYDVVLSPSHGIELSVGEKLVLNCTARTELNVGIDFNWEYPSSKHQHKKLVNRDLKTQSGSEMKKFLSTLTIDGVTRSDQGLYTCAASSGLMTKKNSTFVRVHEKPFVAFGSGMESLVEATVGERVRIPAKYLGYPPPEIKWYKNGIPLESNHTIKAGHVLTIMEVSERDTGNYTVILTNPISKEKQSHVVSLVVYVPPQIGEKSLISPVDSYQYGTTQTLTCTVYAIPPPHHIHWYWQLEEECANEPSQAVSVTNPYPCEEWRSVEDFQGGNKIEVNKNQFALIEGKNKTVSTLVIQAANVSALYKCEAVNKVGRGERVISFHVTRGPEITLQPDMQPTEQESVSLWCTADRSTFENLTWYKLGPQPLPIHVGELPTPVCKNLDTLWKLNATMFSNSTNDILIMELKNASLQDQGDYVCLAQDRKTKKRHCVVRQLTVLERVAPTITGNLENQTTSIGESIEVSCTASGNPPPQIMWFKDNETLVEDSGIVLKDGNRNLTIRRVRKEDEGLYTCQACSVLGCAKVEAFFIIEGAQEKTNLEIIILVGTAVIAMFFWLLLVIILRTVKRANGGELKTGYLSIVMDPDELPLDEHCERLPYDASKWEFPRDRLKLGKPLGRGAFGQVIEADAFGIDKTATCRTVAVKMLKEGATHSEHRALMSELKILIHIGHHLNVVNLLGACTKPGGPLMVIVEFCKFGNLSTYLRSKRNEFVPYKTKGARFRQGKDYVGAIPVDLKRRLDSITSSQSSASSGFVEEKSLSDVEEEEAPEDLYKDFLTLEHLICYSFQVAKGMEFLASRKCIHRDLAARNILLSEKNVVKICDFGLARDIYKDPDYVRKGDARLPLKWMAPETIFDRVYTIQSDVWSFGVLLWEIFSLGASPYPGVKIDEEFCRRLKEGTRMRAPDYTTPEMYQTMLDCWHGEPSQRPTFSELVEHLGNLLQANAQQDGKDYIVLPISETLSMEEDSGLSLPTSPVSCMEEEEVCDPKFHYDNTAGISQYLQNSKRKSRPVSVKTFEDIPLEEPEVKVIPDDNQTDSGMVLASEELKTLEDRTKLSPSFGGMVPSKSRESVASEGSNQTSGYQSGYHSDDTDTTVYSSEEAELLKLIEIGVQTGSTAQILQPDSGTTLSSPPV

| Molecule | inhibition at 10 µM (KDR) | inhibition at 10 µM (c-Abl) | KDR %@10 μM (KDR; % inhibition at 10 μM) | Abl %@10 μM (c-Abl; % inhibition at 10 μM) |
| --- | --- | --- | --- | --- |
| Cc1ccc(C(=O)N[C@H](C)C(=O)OC(C)(C)C)cc1Nc1nccc(-c2cccnc2)n1 [Example 33, N-[4-Methyl-3-[[4-(3-pyridinyl)-2-pyrimidinyl]amino]benzoyl]-(D)-alanine 1,1-dimethylethyl ester] | 51% | 97% |  |  |
| Cc1ccc(C(=O)N[C@@H](Cc2ccccc2)C(=O)OC(C)(C)C)cc1Nc1nccc(-c2cccnc2)n1 [Example 32, N-[4-Methyl-3-[[4-(3-pyridinyl)-2-pyrimidinyl]amino]benzoyl]-(L)-phenylalanine 1,1-dimethylethyl ester] | 37% | 90% |  |  |
| Cc1ccc(C(=O)NCC(N)=O)cc1Nc1nccc(-c2cccnc2)n1 [Example 26, N-(2-Amino-2-oxoethyl)-4-methyl-3-[[4-(3-pyridinyl)-2-pyrimidinyl]amino]benzamide] | 56% | 55% |  |  |
| COC(=O)CNC(=O)c1ccc(C)c(Nc2nccc(-c3cccnc3)n2)c1 [Example 27, N-[4-Methyl-3-[[4-(3-pyridinyl)-2-pyrimidinyl]amino]benzoyl]glycine methyl ester] | 51% | 54% |  |  |
| Cc1ccc(C(=O)NCc2ccco2)cc1Nc1nccc(-c2cccnc2)n1 [Example 1, N-(2-Furanylmethyl)-4-methyl-3-[[4-(3-pyridinyl)-2-Pyrimidinyl]amino]benzamide] | 57% | 51% |  |  |
| Cc1ccc(C(=O)NCc2ccc(N(C)C)cc2)cc1Nc1nccc(-c2cccnc2)n1 [Example 25, N-[[4-(Dimethylamino)phenyl]methyl]-4-methyl-3-[[4-(3-pyridinyl)-2-pyrimidinyl]amino]benzamide] | 73% | 44% |  |  |
| Cc1ccc(C(=O)NCc2ccncc2)cc1Nc1nccc(-c2cccnc2)n1 [Example 6, 4-Methyl-N-(4-pyridinylmethyl)-3-[[4-(3-pyridinyl)-2-pyrimidinyl]amino]benzamide] | 56% | 51% |  |  |
| Cc1ccc(C(=O)NCCc2ccccn2)cc1Nc1nccc(-c2cccnc2)n1 [Example 4, 4-Methyl-N-[2-(2-pyridinyl)ethyl]-3-[[4-(3-pyridinyl)-2-pyrimidinyl]amino]-benzamide] | 46% | 77% |  |  |
| Cc1ccc(C(=O)N2CCN(c3cnccn3)CC2)cc1Nc1nccc(-c2cccnc2)n1 [Example 38, 1-[4-Methyl-3-[[4-(3-pyridinyl)-2-pyrimidinyl]amino]benzoyl]-4-(pyrazinyl)-piperazine] | 91% | 74% |  |  |
| COCCNC(=O)c1ccc(C)c(Nc2nccc(-c3cccnc3)n2)c1 [Example 19, N-(2-methoxyethyl)-4-methyl-3-[[4-(3-pyridinyl)-2-pyrimidinyl]amino]benzamide] | 33% | 41% |  |  |
| 4-Methyl-N-[(5-methylpyrazinyl)methyl]-3-[[4-(3-pyridinyl)-2-pyrimidinyl]amino]benzamide [Example 55] |  |  | 54% | 43% |
| CCN(CC)C(=O)c1ccc(C)c(Nc2nccc(-c3cccnc3)n2)c1 [Example 31, N,N-Diethyl-4-methyl-3-[[4-(3-pyridinyl)-2-pyrimidinyl]amino]benzamide] | 83% | 68% |  |  |
| Cc1ccc(C(=O)N2CCN(CC(=O)N3CCOCC3)CC2)cc1Nc1nccc(-c2cccnc2)n1 [Example 41, 4-{{4-[4-Methyl-3-[[4-(3-pyridinyl)-2-pyrimidinyl]amino]benzoyl]-1-piperazinyl}acetyl}morpholine] | 52% | 13% |  |  |
| CCOC(=O)Cc1csc(NC(=O)c2ccc(C)c(Nc3nccc(-c4cccnc4)n3)c2)n1 [Example 16, 2-[[4-Methyl-3-[[4-(3-pyridinyl)-2-pyrimidinyl]amino]benzoyl]amino]-4-thiazoleacetic acid ethyl ester] | 10% | 42% |  |  |

Results, then the molecule that gave them:

| inhibition at 10 µM (KDR) | inhibition at 10 µM (c-Abl) | KDR %@10 μM (KDR; % inhibition at 10 μM) | Abl %@10 μM (c-Abl; % inhibition at 10 μM) | Molecule |
| --- | --- | --- | --- | --- |
| 79% | 88% |  |  | Cc1ccc(C(=O)Nc2cccc3c2CCCC3)cc1Nc1nccc(-c2cccnc2)n1 [Example 53, 4-Methyl-3-[[4-(3-pyridinyl)-2-pyrimidinyl]amino]-N-(5,6,7,8-tetrahydro-1-naphthalenyl)benzamide] |
| 83% | 87% |  |  | Cc1ccc(C(=O)NC2CCc3ccccc32)cc1Nc1nccc(-c2cccnc2)n1 (stereo not drawn) [Example 50, N-(2,3-Dihydro-1H-inden-1-yl)-4-methyl-3-[[4-(3-pyridinyl)-2-pyrimidinyl]amino]benzamide] |
| 43% | 1% |  |  | Cc1ccc(C(=O)N2CCC(N3CCCCC3)CC2)cc1Nc1nccc(-c2cccnc2)n1 [Example 46, 1′-[4-Methyl-3-[[4-(3-pyridinyl)-2-pyrimidinyl]amino]benzoyl]-1,4′-bipiperidine] |
| 65% | 95% |  |  | Cc1ccc(C(=O)NCC(=O)OC(C)(C)C)cc1Nc1nccc(-c2cccnc2)n1 [Example 61, N-[4-Methyl-3-[[4-(3-pyridinyl)-2-pyrimidinyl]amino]benzoyl]-glycine 1,1-dimethylethyl ester] |
| 56% | 32% |  |  | Cc1ccc(C(=O)N2CCN(CC(=O)N3CCCC3)CC2)cc1Nc1nccc(-c2cccnc2)n1 [Example 42, 1-[4-Methyl-3-[[4-(3-pyridinyl)-2-pyrimidinyl]amino]benzoyl]-4-[2-oxo-2-(1-pyrrolidinyl)ethyl]piperazine] |
| 61% | 34% |  |  | COCCN(CCOC)C(=O)c1ccc(C)c(Nc2nccc(-c3cccnc3)n2)c1 [Example 45, N,N-bis(2-Methoxyethyl)-4-methyl-3-[[4-(3-pyridinyl)-2-pyrimidinyl]amino]benzamide] |
| 42% | 8% |  |  | Cc1ccc(C(=O)NCCN2CCNC2=O)cc1Nc1nccc(-c2cccnc2)n1 [Example 57, 4-Methyl-N-[2-(2-oxo-1-imidazolidinyl)ethyl]-3-[[4-(3-pyridinyl)-2-pyrimidinyl]amino]benzamide] |
| 36% | 79% |  |  | Cc1ccc(C(=O)Nc2cccc(C(=O)c3ccccc3)c2)cc1Nc1nccc(-c2cccnc2)n1 [Example 60, N-(3-Benzoylphenyl)-4-methyl-3-[[4-(3-pyridinyl)-2-pyrimidinyl]amino]benzamide] |
| 96% | 99% |  |  | Cc1ccc(C(=O)NCc2cc(C(C)(C)O)cc(C(F)(F)F)c2)cc1Nc1nccc(-c2cccnc2)n1 [Example 68, 4-Methyl-3-[[4-(3-pyridinyl)-2-pyrimidinyl]amino]-N-[[3-[(1-hydroxy-1-methyl-ethyl)]-5-(1,1,1-trifluoromethyl)phenyl]methyl]benzamide] |
| 26% | 40% |  |  | Cc1ccc(NC(=O)c2ccc(C)c(Nc3nccc(-c4cccnc4)n3)c2)nc1 [Example 58, 4-Methyl-N-(5-methyl-2-pyridinyl)-3-[[4-(3-pyridinyl)-2-pyrimidinyl]amino]benzamide] |
